These results are taken from patent US11666566B2, “Formulations and pharmacokinetics of deuterated benzoquinoline inhibitors of vesicular monoamine transporter 2” (AUSPEX PHARMACEUTICALS, INC., priority 2012, dated 2023).

A short description of series [1]: Phase 1 pharmacokinetic study, single oral 25 mg dose of d6-tetrabenazine or tetrabenazine (immediate release, powder in capsule), two-period crossover. Format: in vivo, human. Particulars: for Ratio of LS Means, AUCinf / Ratio of LS Means, AUClast / Ratio of LS Means, Cmax / Ratio of LS Means, t1/2: d6-tetrabenazine 25 mg (test) to tetrabenazine 25 mg (reference), ANOVA; for AUCinf / Cmax / Tmax / t1/2 / AUClast: plasma analyte, single oral 25 mg d6-tetrabenazine or tetrabenazine; for AUCinf / Cmax / Tmax / t1/2 / AUClast / AUCinf (AUClast presented for parent drug as AUCinf not calculable): fasted, mean; for AUCinf (AUClast presented for parent drug as AUCinf not calculable): parent drug in plasma, single oral 25 mg. How it is done:
A Phase 1 pharmacokinetic study was conducted in 24 healthy extensive and intermediate CYP2D6 metabolizer volunteers receiving oral 25 mg doses of d6-tetrabenazine or tetrabenazine to compare the relative bioavailability and pharmacokinetics of single oral doses of d6-tetrabenazine and its metabolites d6-α-HTBZ and d6-β-HTBZ with their non-deuterated equivalents (tetrabenazine, α-HTBZ and β-HTBZ) as well as the corresponding O-desmethyl metabolites of α-HTBZ and β-HTBZ. Subjects received a single oral dose of 25 mg of d6-tetrabenazine or tetrabenazine after an overnight fast, as a powder in capsule, in Period 1 and following washout of at least 7 days. Patients were crossed over to receive the other treatment in Period 2. In each period, plasma samples were collected over 72 hours post-dose.
Pharmacokinetic results are shown below in Table 37 and FIG. 3, results are presented as Mean (% CV) for Cmax, AUC and t1/2 (AUClast presented for parent drug as AUCinf not calculable), and as Mean (range) for Tmax. The increased exposure was principally attributable to increases in half-life and was associated with proportional reductions in O-desmethyl metabolites of HTBZ.
The effect of deuteration on key pharmacokinetic parameters was evaluated by comparing d6-tetrabenazine (test) to tetrabenazine (reference) using an analysis of variance (ANOVA) model for a two-period crossover including factors Sequence, Treatment, Period and Subject. Pharmacokinetic parameters were log-transformed before analysis.

The conditions of series [2]: human plasma; cited from earlier work.
The conditions of series [3]: co-administration of tetrabenazine and paroxetine, compared to tetrabenazine alone; cited from earlier work.
The format of series [4] is in vitro ADME. An excerpt: d6-Tetrabenazine has been designed with the intent to improve the pharmacokinetic profile of active metabolites α-HTBZ and β-HTBZ. The CYP mediated cleavage of the carbon-deuterium bonds within the trideuterated methyl groups (CD3) of d6-tetrabenazine is slower than the cleavage of the carbon-hydrogen bonds in the methyl groups (CH3) of tetrabenazine, an effect that selectively attenuated O-demethylation of deuterated α-HTBZ and β-HTBZ (d6-α-HTBZ and d6-β-HTBZ) in in vitro studies.
The spectrum of metabolites produced by d6-tetrabenazine is expected to be similar to that in patients with reduced CYP2D6 metabolism who receive tetrabenazine. This is based on in vitro metabolism studies and a drug interaction study of tetrabenazine and paroxetine. In the drug interaction study, co-administration of tetrabenazine and paroxetine increased systemic exposure to the α-HTBZ and β-HTBZ metabolites by 3- to 9-fold, respectively, compared to tetrabenazine alone (Xenazine® U.S. prescribing information). […] Administration of d6-tetrabenazine to healthy volunteers led to an approximate 2-fold increase in systemic exposure to α-HTBZ and β-HTBZ and proportional reductions in O-desmethyl metabolites compared to tetrabenazine. […]

Where two headings read alike, the source gives them in different places.

Consider `COc1cc2c(cc1OC)[C@H]1C[C@H](O)[C@H](CC(C)C)CN1CC2` [β-HTBZ, beta-dihydrotetrabenazine], for which, in series [1], the “Ratio of LS Means, AUCinf” value was found to be 235.8%; the “Ratio of LS Means, AUClast” value turned out to be 240.1%; the “Ratio of LS Means, Cmax” value came out at 145.8%; the “Ratio of LS Means, t1/2” value worked out at 153.0%. Further, in series [1], the AUCinf amounted to 74.0 ng·h/mL, the Cmax came to 20.5 ng/mL, the Tmax was 1.00 h and the t1/2 turned out to be 2.95 h. Moreover, the half-lives in series [2] is 5 h. Besides, in series [3], the “increase in systemic exposure” value is listed as 9 fold.
For the molecule `COc1cc2c(cc1O)C1CC(O)C(CC(C)C)CN1CC2` (stereo not drawn) [10-ODM-β-HTBZ], in series [1], the AUClast worked out at 3.0 ng·h/mL, the Cmax amounted to 1.63 ng/mL and the Tmax was determined as 1.25 h.
For `[2H]C([2H])([2H])Oc1cc2c(cc1O)C1CC(O)C(CC(C)C)CN1CC2` (stereo not drawn) [d3-10-ODM-β-HTBZ], in series [1], the AUClast worked out at 0.7 ng·h/mL, the Cmax is 0.59 ng/mL and the Tmax amounted to 1.50 h.
In the case of `[2H]C([2H])([2H])Oc1cc2c(cc1O)CCN1C[C@@H](CC(C)C)[C@H](O)C[C@H]21` [d3-9-O-desmethyl-α-HTBZ], in series [1], the AUClast came out at 21.0 ng·h/mL, the Cmax is 2.15 ng/mL and the Tmax was found to be 3.02 h.
Regarding `COc1cc2c(cc1O)CCN1C[C@@H](CC(C)C)[C@H](O)C[C@H]21` [9-O-desmethyl-α-HTBZ], in series [1], the AUCinf came out at 49.9 ng·h/mL, the AUClast was 42.5 ng·h/mL, the Cmax is listed as 5.05 ng/mL and the Tmax came to 2.00 h. In series [1], the t1/2 turned out to be 6.95 h.
The corresponding values for `[2H]C([2H])([2H])Oc1cc2c(cc1O)CCN1C[C@@H](CC(C)C)[C@@H](O)C[C@H]21` [d3-9-O-desmethy1-β-HTBZ] are 114 ng·h/mL, 92.4 ng·h/mL, 6.29 ng/mL, 1.75 h and 16.9 h.
Take `[2H]C([2H])([2H])Oc1cc2c(cc1OC([2H])([2H])[2H])[C@@H]1C[C@@H](O)[C@@H](CC(C)C)CN1CC2` [d6-β-HTBZ, deuterated beta-dihydrotetrabenazine]: in series [1], the AUCinf is 171 ng·h/mL, the Cmax is on record as 29.6 ng/mL, the Tmax stood at 1.50 h and the t1/2 came out at 5.00 h. Moreover, the “less of the O-desmethyl metabolites produced” value in series [4] is 69-87%.
In the case of `[2H]C([2H])([2H])Oc1cc2c(cc1OC([2H])([2H])[2H])[C@H]1C[C@@H](O)[C@H](CC(C)C)CN1CC2` [d6-α-HTBZ, deuterated alpha-dihydrotetrabenazine], in series [1], the AUCinf came to 373 ng·h/mL, the Cmax turned out to be 46.1 ng/mL, the Tmax came out at 1.5 h and the t1/2 came out at 8.97 h. The “less of the O-desmethyl metabolites produced” value in series [4] is reported as 69-87%.
`COc1cc2c(cc1OC)[C@@H]1CC(=O)[C@@H](CC(C)C)CN1CC2` (racemic) [Tetrabenazine, (3R,11bR)-1,3,4,6,7,11b-Hexahydro-9,10-dimethoxy-3-(2-methylpropyl)-2H-benzo[a]quinolizin-2-one, and (3S,11bS)-1,3,4,6,7,11b-hexahydro-9,10-dimethoxy-3-(2-methylpropyl)-2H-benzo[a]quinolizin-2-one, reference compound]: the Cmax in series [1] (human, read-out: Cmax) was 0.314 ng/mL. Besides, in series [1], the “AUCinf (AUClast presented for parent drug as AUCinf not calculable)” value is 0.26 ng·h/mL.
For the molecule `[2H]C([2H])([2H])Oc1cc2c(cc1OC([2H])([2H])[2H])[C@@H]1CC(=O)[C@@H](CC(C)C)CN1CC2` (racemic) [d6-Tetrabenazine, (3R,11bR)-1,3,4,6,7,11b-hexahydro-9,10-di(methoxy-d3)-3-(2-methylpropyl)-2H-benzo[a]quinolizin-2-one and (3S,11bS)-1,3,4,6,7,11b-hexahydro-9,10-di(methoxy-d3)-3-(2-methylpropyl)-2H-benzo[a]quinolizin-2-one], the “systemic exposure to total (α+β)-HTBZ” value in series [1] (compared to exposure following tetrabenazine administration) is recorded as “more than doubling”. In addition, the Cmax in series [1] (human, read-out: Cmax) worked out at 0.327 ng/mL. In addition, the “AUCinf (AUClast presented for parent drug as AUCinf not calculable)” value in series [1] is 0.30 ng·h/mL.
For the molecule alpha-dihydrotetrabenazine [α-HTBZ], in series [1], the “Ratio of LS Means, AUCinf” value is given as 213.6%; the “Ratio of LS Means, AUClast” value was 214.8%; the “Ratio of LS Means, Cmax” value is 113.7%; the “Ratio of LS Means, t1/2” value came to 174.7%. Further, in series [1], the AUCinf was 189 ng·h/mL, the Cmax amounted to 41.2 ng/mL, the Tmax worked out at 1.00 h and the t1/2 worked out at 5.47 h. In addition, the half-lives in series [2] is 7 h. Further, the “increase in systemic exposure” value in series [3] was 3 fold.
`COc1cc2c(cc1O)CCN1C[C@@H](CC(C)C)[C@@H](O)C[C@H]21` [9-O-desmethyl-β-HTBZ]: in series [1], the AUCinf amounted to 220 ng·h/mL, the AUClast was found to be 205 ng·h/mL, the highest concentration (Cmax) is reported as 15.7 ng/mL and the Tmax came out at 1.75 h. This molecule displayed a t1/2 in series [1] of 16.2 h.
